Source: patent US20260125360A1, “HERBICIDAL IMIDAZOLE COMPOUNDS” (SYNGENTA CROP PROTECTION AG, priority 2022, published 2026)

Legend:
Format in all cases: in vivo
Conditions in all cases: 250 g/ha, evaluated after 13 days
[1] = system: Echinochloa crus-galli (ECHCG); assay: Post-emergence herbicide glasshouse test
Description: (§1) Seeds of a variety of test species are sown in standard soil in pots Amaranthus palmeri (AMAPA), Amaranthus retoflexus (AMARE), Echinochloa crus-galli (ECHCG), Ipomoea hederacea (IPOHE)). After cultivation for one day (pre-emergence) or after 8 days cultivation (post-emergence) under controlled conditions in a glasshouse (at 24/16° C., day/night; 14 hours light; 65% humidity), the plants are sprayed with an aqueous spray solution derived from the formulation of the technical active ingredient in acetone/water (50:50) solution containing 0.5% Tween 20 (polyoxyethelyene sorbitan monolaurate, CAS RN 9005-64-5). Compounds are applied at 250 g/ha unless otherwise stated. The test plants are then grown in a glasshouse under controlled conditions in a glasshouse (at 24/16° C., day/night; 14 hours light; 65% humidity) and watered twice daily. After 13 days for pre and post-emergence, the test is evaluated for the percentage damage caused to the plant. The biological activities are shown in the following table on a five-point scale (5=81-100%; 4=61-80%; 3=41-60%; 2=21-40%; 1=0-20%).

[2] = system: Ipomoea hederacea (IPOHE); assay: Post-emergence herbicide glasshouse test
Description: as §1

[3] = system: Amaranthus retoflexus (AMARE); assay: Post-emergence herbicide glasshouse test
Description: as §1

[4] = system: Amaranthus palmeri (AMAPA); assay: Post-emergence herbicide glasshouse test
Description: as §1

[5] = system: Echinochloa crus-galli (ECHCG); assay: Pre-emergence herbicide glasshouse test
Description: as §1

[6] = system: Ipomoea hederacea (IPOHE); assay: Pre-emergence herbicide glasshouse test
Description: as §1

[7] = system: Amaranthus retoflexus (AMARE); assay: Pre-emergence herbicide glasshouse test
Description: as §1

[8] = system: Amaranthus palmeri (AMAPA); assay: Pre-emergence herbicide glasshouse test
Description: as §1

| Compound | percentage damage caused to the plant, ECHCG (five-point scale) [1] | percentage damage caused to the plant, IPOHE (five-point scale) [2] | percentage damage caused to the plant, AMARE (five-point scale) [3] | percentage damage caused to the plant, AMAPA (five-point scale) [4] | percentage damage caused to the plant, ECHCG (five-point scale) [5] | percentage damage caused to the plant, IPOHE (five-point scale) [6] | percentage damage caused to the plant, AMARE (five-point scale) [7] | percentage damage caused to the plant, AMAPA (five-point scale) [8] |
| --- | --- | --- | --- | --- | --- | --- | --- | --- |
| CCn1cc(Cn2cc(C(F)(F)F)nc2-c2ccc(Cl)nc2)nn1 [Compound 1.110] | 1 (1=0-20%) | 4 (4=61-80%) | 4 (4=61-80%) | 4 (4=61-80%) | 3 (3=41-60%) | 5 (5=81-100%) | 5 (5=81-100%) | 5 (5=81-100%) |
| Fc1ccc(-c2nc(C(F)(F)F)cn2Cc2ccc(Cl)s2)cc1F [Compound 1.173] | 2 (2=21-40%) | 1 (1=0-20%) | 5 (5=81-100%) | 4 (4=61-80%) | 1 (1=0-20%) | 1 (1=0-20%) | 5 (5=81-100%) | 5 (5=81-100%) |
| FC(F)(F)c1cn(Cc2cc(C3CC3)no2)c(-c2ccc(Cl)nc2)n1 [Compound 1.134] | 2 (2=21-40%) | 4 (4=61-80%) | 5 (5=81-100%) | 5 (5=81-100%) | 3 (3=41-60%) | 4 (4=61-80%) | 5 (5=81-100%) | 5 (5=81-100%) |
| CCn1nnc(Cn2cc(C(F)(F)F)nc2-c2ccc(Cl)nc2)n1 [Compound 1.086] | 5 (5=81-100%) | 5 (5=81-100%) | 5 (5=81-100%) | 5 (5=81-100%) | 5 (5=81-100%) | 5 (5=81-100%) | 5 (5=81-100%) | 5 (5=81-100%) |
| Cn1cc(Cn2cc(C(F)(F)F)nc2-c2ccc(Cl)nc2)nn1 [Compound 1.057] | 4 (4=61-80%) | 4 (4=61-80%) | 4 (4=61-80%) | 4 (4=61-80%) | 4 (4=61-80%) | 5 (5=81-100%) | 5 (5=81-100%) | 5 (5=81-100%) |
| FC(F)(F)c1cn(Cc2sc(Cl)nc2Cl)c(-c2ccc(Cl)nc2)n1 [Compound 1.148] | 1 (1=0-20%) | 1 (1=0-20%) | 1 (1=0-20%) | 1 (1=0-20%) | 1 (1=0-20%) | 1 (1=0-20%) | 1 (1=0-20%) | 1 (1=0-20%) |
| CS(=O)(=O)c1ccc(-c2nc(C(F)(F)F)cn2Cc2ccc(Cl)s2)cc1 [Compound 1.175] | 1 (1=0-20%) | 2 (2=21-40%) | 4 (4=61-80%) | 4 (4=61-80%) | 2 (2=21-40%) | 1 (1=0-20%) | 5 (5=81-100%) | 4 (4=61-80%) |
| CCc1cc(Cn2cc(C(F)(F)F)nc2-c2ccc(Cl)nc2)no1 [Compound 1.046] | 4 (4=61-80%) | 4 (4=61-80%) | 5 (5=81-100%) | 5 (5=81-100%) | 5 (5=81-100%) | 5 (5=81-100%) | 5 (5=81-100%) | 5 (5=81-100%) |
| Cc1nc(Cn2cc(C(F)(F)F)nc2-c2ccc(F)c(F)c2)no1 [Compound 1.168] | 5 (5=81-100%) | 5 (5=81-100%) | 5 (5=81-100%) | 5 (5=81-100%) | 5 (5=81-100%) | 5 (5=81-100%) | 5 (5=81-100%) | 5 (5=81-100%) |
| Cn1cnc(Cn2cc(C(F)(F)F)nc2-c2ccc(F)c(F)c2)n1 [Compound 1.020] | 5 (5=81-100%) | 4 (4=61-80%) | 5 (5=81-100%) | 5 (5=81-100%) | 5 (5=81-100%) | 5 (5=81-100%) | 5 (5=81-100%) | 5 (5=81-100%) |
| CCn1ccc(Cn2cc(C(F)(F)F)nc2-c2ccc(Cl)nc2)n1 [Compound 1.063] | 1 (1=0-20%) | 3 (3=41-60%) | 5 (5=81-100%) | 5 (5=81-100%) | 1 (1=0-20%) | 5 (5=81-100%) | 5 (5=81-100%) | 5 (5=81-100%) |
| Fc1ncc(-c2nc(C(F)(F)F)cn2Cc2ccc(Cl)s2)cc1Cl [Compound 1.152] | 1 (1=0-20%) | 2 (2=21-40%) | 5 (5=81-100%) | 5 (5=81-100%) | 3 (3=41-60%) | 1 (1=0-20%) | 5 (5=81-100%) | 5 (5=81-100%) |
| CC(C)c1noc(Cn2cc(C(F)(F)F)nc2-c2ccc(Cl)nc2)n1 [Compound 1.139] | 1 (1=0-20%) | 1 (1=0-20%) | 1 (1=0-20%) | 1 (1=0-20%) | 1 (1=0-20%) | 1 (1=0-20%) | 1 (1=0-20%) | 1 (1=0-20%) |
